pIC50: −log10 of the molar value. Like-named read-outs stand apart in the source and are kept apart here.
Legend:
[1] = biological target: T1, GPX4 (Homo sapiens, UniProt P36969); experiment: GPX4 activity assay in cell lysates (NADPH-coupled); format: biochemical; parameters: endogenous in cells; host or cells: A-673 cell lysate
T1 sequence (P36969 1-170 isoform P36969-2): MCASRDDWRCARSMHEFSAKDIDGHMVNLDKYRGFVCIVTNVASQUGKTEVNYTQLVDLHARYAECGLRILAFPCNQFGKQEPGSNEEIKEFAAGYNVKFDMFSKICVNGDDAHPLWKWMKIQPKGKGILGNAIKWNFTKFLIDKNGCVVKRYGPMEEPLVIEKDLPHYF
Method in brief: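 Native GPX4 in lysates of A-673 cells grown with 20 nM sodium selenite; lysate preincubated with compound 45 min at 37 °C in pH 8.0 buffer with 3 mM GSH, 0.5 mM NADPH and glutathione reductase. Reaction started with phosphatidylcholine hydroperoxide; NADPH consumption followed at 340 nm over 25 min; triplicates.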

[2] = test system: HT-1080 cells; experiment: Cellular dose response assay, HT-1080 with and without Fer-1; format: cell-based, human; details: for Selectivity: ferroptosis selectivity, IC50 with Fer-1 / IC50
Text: HT-1080 (human [Homo sapiens] […] fibrosarcoma), A-673 (human [Homo sapiens] […] Ewing's sarcoma), and SK-HEP-1 (human [Homo sapiens] […] hepatic adenocarcinoma), cells were obtained from ATCC. Huh7 (human [Homo sapiens] […] hepatocellular carcinoma), HLF (human [Homo sapiens] […] hepatocellular carcinoma), HepG2 (human [Homo sapiens] […] hepatocellular carcinoma), cells were obtained from the Cancer Cell Bank at Columbia University Irving Medical Center. HT-1080, A-673, Huh-7, and HLF cells were grown in Dulbecco's Modified Eagle Medium (DMEM) supplemented with 10% heat inactivated fetal bovine serum (HI-FBS), 1% non-essential amino acids, and 1% penicillin streptomycin. HepG2 and SK-HEP-1 cells were grown in Eagle's Minimum Essential Medium (EMEM) supplemented with 10% HI-FBS, and 1% penicillin-streptomycin. All cells were cultured at 37° C. and 5% CO2.
HT-1080, HepG2, Huh7, HLF, and SK-HEP-1 cells were seeded into opaque white 384-well plates at 1500 cells per well then incubated at 37° C. with 5% CO2 overnight. The next day, compounds of interest were dissolved in DMSO and 12-point 2-fold dilution series were prepared with and without Fer-1. Cells were treated in triplicate (final DMSO concentration of 0.4% in all wells, including DMSO-only control wells) and incubated for a further 48 hours at 37° C. and 5% CO2. Cell viability was evaluated using CellTiter-Glo (Promega G7573) and luminescence was recorded on a Victor 5 plate reader. Data were analyzed in GraphPad Prism 9 and error bars represent standard deviation values for three technical replicates in a representative experiment.

[3] = with Fer-1, Table 10, read-out: IC50 (μM) HT1080 + Fer-1
[4] = without Fer-1, Table 10, read-out: IC50 (μM) HT1080

Cn1nc(C(=O)N2CCC(OC(=O)CCl)C2(C)C)c2ccc(-c3ccc(N4CCOCC4)c(Cl)c3)cc21 (stereo not drawn) [QW-691]
GPX4% inhibition at 2.5 μM ([1]; 2.5 μM): 30.5 ± 7.4%

Cn1nc(-c2nnc(C(C)(OC(=O)CCl)C(F)(F)F)o2)c2ccc(Br)cc21 (stereo not drawn) [QW-694]
GPX4% inhibition at 2.5 μM ([1]; 2.5 μM, generation 2): 10.6 ± 5.8%

COc1ccc(-c2ccc3c(-c4nnc(C(C)(OC(=O)CCl)C(F)(F)F)o4)nn(C)c3c2)cc1Cl (stereo not drawn) [QW-699]
GPX4% inhibition at 2.5 μM ([1]; 2.5 μM): 2.4 ± 17.3%

Cn1nc(-c2nnc(C(C)(OC(=O)CCl)C(F)(F)F)o2)c2ccc(-c3ccc(N4CCOCC4)c(Cl)c3)cc21 (stereo not drawn) [QW-700]
GPX4% inhibition at 2.5 μM ([1]; 2.5 μM): −2.2 ± 5.0%

Cn1nc(C(=O)N2CCC(OC(=O)CCl)C2(C)C)c2ccc(-c3ccc4c(c3)OCO4)cc21 (stereo not drawn) [QW-702]
GPX4% inhibition at 2.5 μM ([1]; 2.5 μM): 23.8 ± 3.7%

Cn1nc(C(=O)NC(C)(C)COC(=O)CCl)c2ccc(-c3ccc(OCC(F)(F)F)cc3)cc21 [QW-719]
GPX4% inhibition at 2.5 μM ([1]; 2.5 μM): 2.4 ± 17.3% | GPX4 inhibition rate ([1]; concentration not given): no inhibition on GPX4

CC(C)Oc1ccc(-c2ccc3c(C(=O)NC(C)(C)COC(=O)CCl)nn(C)c3c2)cn1 [QW-720]
GPX4 inhibitory activity, result in words [1]: substantially higher GPX4 inhibitory activities than QW-446 | GPX4% inhibition at 2.5 μM ([1]; 2.5 μM): 76.9 ± 4.2%

COc1ccc(-c2ccc3c(NC(=O)C(C)(C)COC(=O)CCl)nn(C)c3c2)cc1Cl [QW-722]
GPX4% inhibition at 2.5 μM ([1]; 2.5 μM): −2.2 ± 5.0%

Cn1nc(C(=O)NC(C)(C)COC(=O)CCl)c2ccc(-c3ccc(S(=O)(=O)N4CCC4)cc3)cc21 [QW-724]
GPX4% inhibition at 2.5 μM ([1]; 2.5 μM): 23.8 ± 3.7%

COc1c(Cl)cc(-c2ccc3c(-n4cc(CCOC(=O)CCl)nn4)nn(C)c3c2)cc1Cl [QW-752]
GPX4% inhibition at 2.5 μM ([1]; 2.5 μM): −6.6 ± 9.7%

Cn1nc(-n2cc(CCOC(=O)CCl)nn2)c2ccc(-c3ccc(N4CCOCC4)c(Cl)c3)cc21 [QW-756]
GPX4% inhibition at 2.5 μM ([1]; 2.5 μM): 41.6 ± 9.0%

Cn1nc(C(=O)NC(C)(C)C(C)(C)OC(=O)CCl)c2ccc(-c3ccc(OC(F)(F)F)c(Cl)c3)cc21 [QW-759]
GPX4% inhibition at 2.5 μM ([1]; 2.5 μM): 18.4 ± 8.3%

CC(C)Oc1ncc(-c2ccc3c(-n4cc(C(C)(C)COC(=O)CCl)nn4)nn(C)c3c2)cn1 [QW-760]
GPX4% inhibition at 2.5 μM ([1]; 2.5 μM): 14.6 ± 12.4%

Cn1nc(-n2cc(CCOC(=O)CCl)nn2)c2ccc(-c3ccc(OC(F)(F)F)c(Cl)c3)cc21 [QW-764]
GPX4% inhibition at 2.5 μM ([1]; 2.5 μM): 25.4 ± 12.0%

CCOc1ccc(-c2ccc3c(C(=O)NC(C)(C)C(C)(C)OC(=O)CCl)nn(C)c3c2)cc1Cl [QW-765]
GPX4% inhibition at 2.5 μM ([1]; 2.5 μM): 12.0 ± 10.7%

COc1ncc(-c2ccc3c(C(=O)NC(C)(C)COC(=O)CCl)nn(C)c3c2)cc1F [QW-768]
GPX4% inhibition at 2.5 μM ([1]; 2.5 μM): 32.6 ± 7.9%

Cn1nc(C(=O)NCC(C)(C)OC(=O)CCl)c2ccc(-c3ccc(N4CCOCC4)c(Cl)c3)cc21 [QW-775]
GPX4% inhibition at 2.5 μM ([1]; 2.5 μM): 36.2 ± 4.1%

COc1c(Cl)cc(-c2ccc3c(C(=O)NCC(C)(C)OC(=O)CCl)nn(C)c3c2)cc1Cl [QW-778]
GPX4% inhibition at 2.5 μM ([1]; 2.5 μM): 30.4 ± 10.0%

Cn1nc(C(=O)NCC(C)(C)OC(=O)CCl)c2ccc(-c3ccc(OC(F)(F)F)c(Cl)c3)cc21 [QW-779]
GPX4% inhibition at 2.5 μM ([1]; 2.5 μM): 39.1 ± 17.7%

CCOc1ccc(-c2ccc3c(C(=O)NCC(C)(C)OC(=O)CCl)nn(C)c3c2)cc1Cl [QW-782]
GPX4% inhibition at 2.5 μM ([1]; 2.5 μM): −1.0 ± 32.8%

COc1ccc(-c2ccc3c(C(=O)NCC(C)(C)OC(=O)CCl)nn(C)c3c2)cc1Br [QW-783]
GPX4% inhibition at 2.5 μM ([1]; 2.5 μM): −172.4 ± 10.3%

Cn1nc(-n2cc(C(C)(C)COC(=O)CCl)nn2)c2ccc(-c3ccc(C(F)(F)F)c(Cl)c3)cc21 [QW-787]
GPX4% inhibition at 2.5 μM ([1]; 2.5 μM): 35.1 ± 29.1%

Cn1nc(-n2cc(C(C)(C)CNC(=O)CCl)nn2)c2ccc(-c3ccc(N4CCOCC4)c(Cl)c3)cc21 [QW-793]
GPX4% inhibition at 2.5 μM ([1]; 2.5 μM): −53.4 ± 17.0%

Cn1nc(C(=O)NC(C)(C)COC(=O)CCl)c2ccc(-c3ccc(C(F)(F)F)c(Cl)c3)cc21 [QW-794]
GPX4% inhibition at 2.5 μM ([1]; 2.5 μM): 78.5 ± 10.5%

COc1c(F)cc(-c2ccc3c(C(=O)NC(C)(C)COC(=O)CCl)nn(C)c3c2)cc1Cl [QW-802]
GPX4% inhibition at 2.5 μM ([1]; 2.5 μM): 80.1 ± 4.7%

CC(C)Oc1c(Cl)cc(-c2ccc3c(C(=O)NC(C)(C)C(C)(C)OC(=O)CCl)nn(C)c3c2)cc1Cl [QW-808]
GPX4% inhibition at 2.5 μM ([1]; 2.5 μM): 36.3 ± 16.1%

COc1c(Cl)cc(-c2ccc3c(-n4cc(C(C)(C)COC(=O)CCl)nn4)nn(C)c3c2)cc1C(F)(F)F [QW-817]
GPX4% inhibition at 2.5 μM ([1]; 2.5 μM): 75.3 ± 14.5%

CC(C)Oc1c(Cl)cc(-c2ccc3c(C(=O)NC(C)(C)COC(=O)CCl)nn(C)c3c2)cc1Cl [QW-820]
GPX4% inhibition at 2.5 μM ([1]; 2.5 μM): 71.4 ± 6.9%

COc1ccc(-c2ccc3c(C(=O)NC(C)(C)COC(=O)CCl)nn(C)c3c2)c(Cl)c1Cl [QW-826]
GPX4% inhibition at 2.5 μM ([1]; 2.5 μM): 66.2 ± 5.4%

COc1ccc(-c2ccc3c(-n4cc(C(C)(C)COC(=O)CCl)nn4)nn(C)c3c2)c(Cl)c1Cl [QW-829]
GPX4% inhibition at 2.5 μM ([1]; 2.5 μM): 68.7 ± 3.6%

COc1cc(F)c(-c2ccc3c(C(=O)NC(C)(C)COC(=O)CCl)nn(C)c3c2)cc1Cl [QW-830]
GPX4% inhibition at 2.5 μM ([1]; 2.5 μM): 65.5 ± 5.9%

COc1c(Cl)cc(-c2ccc3c(C(=O)NC(C)(C)COC(=O)CCl)nn(Cc4ccc(Cl)cc4)c3c2)cc1C(F)(F)F [QW-836]
GPX4 inhibition ([1]; 2.5 μM): 50% | GPX4% inhibition at 2.5 μM ([1]; 2.5 μM, 4th generation): 45.7 ± 17.5%

CCOc1ccc(-c2ccc3c(C(=O)NC(C)(C)COC(=O)CCl)nn(Cc4ccc(Cl)cc4)c3c2)cc1Cl [QW-840]
GPX4% inhibition at 2.5 μM ([1]; 2.5 μM, 4th generation): 80.1 ± 11.8%

COc1c(Cl)cc(-c2ccc3c(C(=O)NC(C)(C)COC(=O)CCl)nn(Cc4ccc(Cl)cc4)c3c2)cc1Cl [QW-843]
GPX4% inhibition at 2.5 μM ([1]; 2.5 μM, 4th generation): 76.8 ± 11.4%

CCCOc1ccc(-c2ccc3c(C(=O)NC(C)(C)COC(=O)CCl)nn(Cc4ccc(Cl)cc4)c3c2)cc1Cl [QW-846]
GPX4% inhibition at 2.5 μM ([1]; 2.5 μM, 4th generation): 91.5 ± 3.9%

COc1ccc(-c2ccc3c(C(=O)NC(C)(C)C(C)(C)OC(=O)CCl)nn(Cc4cc(Cl)cc(Cl)c4)c3c2)cc1Cl [QW-886]
Selectivity [2]: 4.5 | IC50 [2, 3]: 55.3 µM | IC50 [2, 4]: 12.4 µM

CC(C)(NC(=O)c1nn(Cc2cc(Cl)cc(Cl)c2)c2cc(-c3ccc(N4CCOCC4)c(Cl)c3)ccc12)C(C)(C)OC(=O)CCl [QW-887]
Selectivity [2]: >174 | IC50 [2, 3]: > 40 µM | pIC50 ([2]; without Fer-1, Table 10, read-out: IC50 HT1080): 6.63

COc1ccc(-c2ccc3c(C(=O)NC(C)(C)COC(=O)CCl)nn(Cc4cccc(C(C)=O)c4)c3c2)cc1Cl [QW-892]
Selectivity [2]: 1.6 | IC50 [2, 3]: 37.7 µM | IC50 [2, 4]: 23.7 µM

COc1ccc(-c2ccc3c(C(=O)NC(C)(C)COC(=O)CCl)nn(Cc4ccc(Cl)nc4)c3c2)cc1Cl [QW-897]
Selectivity [2]: 7.5 | IC50 [2, 3]: 9 µM | IC50 [2, 4]: 1.2 µM

CC(C)(COC(=O)CCl)NC(=O)c1nn(Cc2ccc(Cl)nc2)c2cc(-c3ccc(N4CCOCC4)c(Cl)c3)ccc12 [QW-898]
Selectivity [2]: 6.8 | IC50 [2, 3]: 8.1 µM | IC50 [2, 4]: 1.2 µM

CC(C)(COC(=O)CCl)NC(=O)c1c2ccc(-c3ccc(N4CCOCC4)c(Cl)c3)cc2nn1Cc1ccc(Cl)nc1 [QW-904]
ferroptosis selectivity ([2]; HT-1080): 3.8 | Selectivity [2]: 3.8 | IC50 [2, 3]: 2.8 µM | IC50 [2, 4]: 0.74 µM

CC(=O)c1cccc(Cn2nc3cc(-c4ccc(N5CCOCC5)c(Cl)c4)ccc3c2C(=O)NC(C)(C)COC(=O)CCl)c1 [QW-911]
Selectivity [2]: 3.8 | IC50 [2, 3]: 5 µM | IC50 [2, 4]: 1.3 µM

CC(C)(COC(=O)CCl)NC(=O)c1c2ccc(Br)cc2nn1Cc1ccc(-c2ccc(N3CCOCC3)c(Cl)c2)cc1 [QW-912]
Selectivity [2]: 3.4 | IC50 [2, 3]: 5.1 µM | IC50 [2, 4]: 1.5 µM

COc1ccc(-c2ccc3c(C(=O)NC(C)(C)CNC(=O)CCl)nn(Cc4cc(Cl)cc(Cl)c4)c3c2)cc1Cl [QW-927]
Selectivity [2]: 5.1 | IC50 [2, 3]: 8.2 µM | IC50 [2, 4]: 1.6 µM

Source: patent US20250248979A1, “NOVEL GPX4 INHIBITORS AND USES THEREOF” (THE TRUSTEES OF COLUMBIA UNIVERSITY IN THE CITY OF NEW YORK, priority 2022, published 2025)
